Assay results as given in patent EP0454459A2, “Sulfonylalkanoic acid amide derivatives” (TAISHO PHARMACEUTICAL CO. LTD, priority 1990, dated 1991).

Assays:
male Wistar rats [1] = test: Inhibition test of anemic decerebrate rigidity; format: in vivo; conditions: inhibition time of forelimb rigidity, intravenously, 5 mg/kg, dissolved in polyethlene glycol 400
Method: The rigidity animals were prepared according to the method of Fukuda et al. [Japanese J. Pharmacol., vol. 24, pages 810 - 813 (1974)].
Four male Wistar rats weighing 250 to 350 g were used for each group.
The animal was incised on the cervical region under the ethyl ether anesthesia, and the common carotid arteries were ligated bilaterally. A trephined opening was made in the occipital bone and the basilar artery was coagulated using a bipolar electro-coagulator. Marked rigidity occurred on the forelimbs after discontinuation of the ethyl ether anesthesia. The test drugs dissolved in polyethlene glycol 400 were each administered intravenously in a dose of 5 mg/kg (0.1 ml per 100 g of rat) to determine the inhibition time of the rigidity.

male ICR mice [2] = test: Straub tail test (morphine-induced tail elevation); format: in vivo; conditions: orally 100 mg/kg, 15 mg/kg morphine hydrochloride s.c. after 15 minutes, tail elevation determined after 30 minutes, positive when angle less than 45°
Method: The test was carried out according to the method of Ellis et al. [Neuropharmacology, vol. 13, pages 211 - 214 (1974)]. Five male ICR mice weighing 20 to 30 g were used for each group. The test drugs suspended in 0.4% aqueous carboxymethylcellulose solution were administered orally in a dose of 100 mg/kg (0.1 ml per 10 g of mouse). After 15 minutes, 15 mg/kg of morphine hydrochloride was administered subcutaneously, and after 30 minutes, the tail elevation was determined. The muscle relaxation activity was defined as positive when the angle of tail elevation from the horizontal was less than 45°. As a result, the inhibition ratio of Compounds 2, 4 and 8 were each 100%.

male Wistar rats [3] = test: Inhibition test of the radiofrequency decerebrate rigidity; format: in vivo; conditions: inhibition time of hindlimb rigidity, intravenously, 5 mg/kg, dissolved in propylene glycol
Method: The rigidity animals were prepared according to the method of Ono et al. [Gen. Pharm., vol. 18, pages 57 - 59 (1987)].
Four male Wistar rats weighing 250 to 350 g were used for each group. The animals were anesthetized with ethyl ether and fixed on a brain stereotaxic apparatus to break the midbrain bilaterally (APO, V-3, L±1.5). Rigidity occurred gradually in the hindlimbs after discontinuation of ethyl ether anesthesia. The test drugs dissolved in propylene glycol were administered intravenously in a dose of 5 mg/kg (0.1 ml per 100 g of rat) to determine the inhibition time of the rigidity.

male ICR mice [4] = test: Acute toxicity test; format: in vivo; conditions: orally, dose of 1 g/kg, observed 7 days after administration
Method: (§1) Ten male ICR mice weighing 25 to 34 g were used. Compound 4 suspended in 0.4 aqueous carboxymethylcellulose solution was each administered orally to mice in a volume of 0.1 ml per 10 g of mice. The survivals were observed 7 days after administration.

Acute toxicity test = format: in vivo, ICR mice; conditions: mouse, in vivo, po; mice; p.o.; survivals observed 7 days after administration; read-out: LD₅₀ value
Method: as §1

| Structure (SMILES) | Inhibition Time (male Wistar rats [1]) [min] | inhibition ratio (male ICR mice [2]) [%] | Inhibition Time (male Wistar rats [3]) [min] | death (male ICR mice [4]) | LD50 at 168 h (Acute toxicity test) [mg/kg] |
| --- | --- | --- | --- | --- | --- |
| CC(C(=O)NC1CC1)S(=O)(=O)c1ccccc1Cl (centres unmarked) [Compound 2, N-cyclopropyl-2-(2-chlorophenylsulfonyl)propionamide] | 5.0 | 100 | 11.7 | – | – |
| CC(C(=O)NC1CC1)S(=O)(=O)c1ccccc1Br (centres unmarked) [Compound 4, N-cyclopropyl-2-(2-bromophenylsulfonyl)propionamide] | – | 100 | 37.0 | No death occurred | > 1000 |
| CC(C(=O)NC1CC1)S(=O)(=O)c1ccc(Cl)cc1Cl (centres unmarked) [Compound 8, N-cyclopropyl-2-(2,4-dichlorophenylsulfonyl)propionamide] | 17.7 | 100 | 78.0 | – | – |
| CC(C(=O)NC1CC1)S(=O)(=O)c1ccc(F)cc1Cl (centres unmarked) [Compound 11] | – | – | 24.0 | – | – |
